Measurements taken from patent publication US6399629B1, “Efflux pump inhibitors” (priority 1998, dated 2002).

Tested on: Pseudomonas aeruginosa PAM1001
Experiment: checkerboard assay (broth microdilution): levofloxacin MIC in presence of efflux pump inhibitor
Type: cell-based
Procedure, shortened: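 Checkerboard broth microdilution in Mueller Hinton Broth against P. aeruginosa PAM1001 (5×10^5 CFU/mL, early-log inoculum), levofloxacin and efflux pump inhibitor (up to 40 μg/mL) diluted along crossing axes. Plates incubated 20 h at 35° C; growth read at 650 nm and visually. Potentiation scored as reduced levofloxacin MIC.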

SMILES	Levofloxacin MIC Against P. aerugiuosa PAM1001 in Presence of Efflux Pump Inhibitor (EPI), Minimum Inhibitory Concentration (EPI Conc. 0 μg/mL)	Levofloxacin MIC Against P. aerugiuosa PAM1001 in Presence of Efflux Pump Inhibitor (EPI), Minimum Inhibitory Concentration (EPI Conc. 0.625 μg/mL)	Levofloxacin MIC Against P. aerugiuosa PAM1001 in Presence of Efflux Pump Inhibitor (EPI), Minimum Inhibitory Concentration (EPI Conc. 1.25 μg/mL)	Levofloxacin MIC Against P. aerugiuosa PAM1001 in Presence of Efflux Pump Inhibitor (EPI), Minimum Inhibitory Concentration (EPI Conc. 2.5 μg/mL)	Levofloxacin MIC Against P. aerugiuosa PAM1001 in Presence of Efflux Pump Inhibitor (EPI), Minimum Inhibitory Concentration (EPI Conc. 5 μg/ mL)	Levofloxacin MIC Against P. aerugiuosa PAM1001 in Presence of Efflux Pump Inhibitor (EPI), Minimum Inhibitory Concentration (EPI Conc. 10 μg/mL)	Levofloxacin MIC Against P. aerugiuosa PAM1001 in Presence of Efflux Pump Inhibitor (EPI), Minimum Inhibitory Concentration (EPI Conc. 20 μg/mL)	Levofloxacin MIC Against P. aerugiuosa PAM1001 in Presence of Efflux Pump Inhibitor (EPI), Minimum Inhibitory Concentration (EPI Conc. 40 μg/mL)
CC(C)C[C@@H](NC(=O)[C@H]1C[C@H](CN)CN1)C(=O)Nc1cnc2ccccc2c1 [Compound M34, (2R,4R)-4-(Aminomethyl)-N-[(1R)-3-methyl-1-(3-quinolylcarbamoly)butyl]-2-pyrrolidinecarboxamide]	4 µg/mL	4 µg/mL	4 µg/mL	4 µg/mL	4 µg/mL	2 µg/mL	1 µg/mL	0.5 µg/mL
NC[C@@H]1CN[C@@H](C(=O)N[C@H](CCc2ccccc2)C(=O)Nc2cnc3ccc(F)cc3c2)C1 [Compound M35, (2R,4R)-4-(Aminomethyl)-N-[(1R)-3-pheyl-1-(6-fluoro-3-quinolylcarbamoyl)propyl]-2-pyrrolidinecarboxamide]	4 µg/mL	4 µg/mL	4 µg/mL	4 µg/mL	2 µg/mL	0.5 µg/mL	0.03 µg/mL	0.03 µg/mL
NC[C@@H]1CN[C@@H](C(=O)N[C@H](CCc2ccccc2)C(=O)Nc2cc(Cl)ccc2O)C1 [Compound M39, (2R,4R)-4-(Aminomethyl)-N-[(1R)-3-pheyl-1-(5-chloro-2-hydroxyphenylcarbamoyl)propyl]-2-pyrrolidinecarboxamide]	4 µg/mL	4 µg/mL	2 µg/mL	0.5 µg/mL	0.25 µg/mL	0.015 µg/mL	0.015 µg/mL	0.015 µg/mL
NCC(=O)N[C@@H]1CN[C@@H](C(=O)NC(Cc2ccccc2)C(=O)Nc2cnc3ccccc3c2)C1 (stereo partly drawn) [Compound M41, (2R,4S0-4-(2-Aminoacetamideo)-N-(2-phenylethyl)-N-(3-quinolylcarbamoyl)ethyl]-2-pyrrolidinecarboxamide]	4 µg/mL	4 µg/mL	2 µg/mL	2 µg/mL	0.25 µg/mL	0.008 µg/mL	0.008 µg/mL	0.008 µg/mL
NCC(=O)N[C@H]1CN[C@@H](C(=O)N(CCc2ccccc2)CC(=O)Nc2cnc3ccccc3c2)C1 [Compound M46]	4 µg/mL	4 µg/mL	4 µg/mL	4 µg/mL	4 µg/mL	4 µg/mL	1 µg/mL	0.5 µg/mL
C[C@@H](N)C(=O)N[C@@H]1CN[C@@H](C(=O)N(CCC(C)(C)C)CC(=O)Nc2cnc3ccccc3c2)C1 [Compound M47]	4 µg/mL	4 µg/mL	4 µg/mL	4 µg/mL	4 µg/mL	4 µg/mL	2 µg/mL	0.03 µg/mL
CC(C)C[C@H](COc1ccc2ccccc2c1)NC(=O)[C@H]1C[C@H](NC(=O)CN)CN1 [Compound M49, (2R,4S)-4-(2-Aminoacetamideo)-N-[(1R)-3-methyl-1-[(2-naphthyloxy)methyl]butyl]-2-pyrrolidinecarboxamide]	4 µg/mL	4 µg/mL	4 µg/mL	4 µg/mL	4 µg/mL	1 µg/mL	0.125 µg/mL	0.06 µg/mL
NCC(=O)N[C@H]1CN[C@H](C(=O)N[C@H](CCc2ccccc2)CSc2cnc3ccccc3c2)C1 [Compound M53, (2S,4R)-4-(2-Aminoacetamideo)-N-[(1R)-3-phenyl-1-[(3-quinolythio)methyl]propyl]-2-pyrrolidinecarboxamide]	4 µg/mL	4 µg/mL	4 µg/mL	4 µg/mL	4 µg/mL	4 µg/mL	0.06 µg/mL	0.03 µg/mL
NCC(=O)N[C@H]1CN[C@H](C(=O)N[C@H](CCc2ccccc2)COc2ccc3ccccc3n2)C1 [Compound M54, (2S,rR)-4-(2-Aminoacetamido)-N-[(1R)-3-phenyl-1-[(2-quinolyloxy)methyl]propyl]-2-pyrrolidinecarboxamide]	4 µg/mL	4 µg/mL	4 µg/mL	4 µg/mL	4 µg/mL	0.125 µg/mL	0.06 µg/mL	0.03 µg/mL
